Results as given in US8133691B2, “Stable quantitation and detection of immune response levels with non-zero background peptides” (The Henry M. Jackson Foundation for the Advancement of …, priority 2005, dated 2012).

Legend:
[1] = tested on: IFN-gamma-secreting cells (PBMC); test: Ex vivo ELISPOT, PBMC stimulated with artificial APC DYNAL beads + [MHC + peptide]; assay type: cell-based, human
[2] = tested on: IFN-gamma-secreting cells (PBMC); test: Ex vivo ELISPOT, PBMC stimulated with plain (non-complexed) peptide; assay type: cell-based, human; conditions: PBMC 3 × 10^5 cells/well
Method: The term “ELISPOT” is used herein, for purposes of the specification and claims, to mean an adaptation of ELISA in which cells are placed over antibodies or antigens attached to a plastic surface. The antigen or antibody traps the cells' secreted products, which can then be detected by using an enzyme-coupled antibody that cleaves a preferably colorless substrate to make a localized colored spot.
In another embodiment, experiments were conducted with the E75 or Telomerase peptides+HLA beads in ex vivo ELISPOT assays run in the absence of stimulation (i.e. culture medium) or with plain or non-complexed E75 or Telomerase peptides. […] These responses have been reproduced in a number of assays using peripheral blood samples from prostate and breast cancer patients. The beads need not be made by DYNAL Biotech. Another biochemical manufacturer—such as BD Biosciences, may produce them.
In another embodiment, experiments were conducted with the E75 or Telomerase peptides+HLA beads in ex vivo ELISPOT assays run with negative control peptides.

E37-ve: DYNAL beads + MHC + E37 negative control peptide (RIAWARTEL) [Peptide E37-ve]
ELISPOT spots ([1]; 1 × 10^5 beads/well, PBMC 1 × 10^5 cells/well): 0 spots | ELISPOT spots ([1]; 1 × 10^5 beads/well, PBMC 2 × 10^5 cells/well): 6 spots | ELISPOT spots ([1]; 1 × 10^5 beads/well, PBMC 3 × 10^5 cells/well): 20 spots | ELISPOT spots ([1]; 5 × 10^5 beads/well, PBMC 1 × 10^5 cells/well): 0 spots | ELISPOT spots ([1]; 5 × 10^5 beads/well, PBMC 2 × 10^5 cells/well): 3 spots | ELISPOT spots ([1]; 5 × 10^5 beads/well, PBMC 3 × 10^5 cells/well): 8 spots

NH2-RIAWARTEL-COOH (H-RIAWARTEL-OH) [Peptide E37, negative control peptide]
ELISPOT spots [2]: 1 spots
